This note sets out measurements from ChEMBL document CHEMBL1201862, “PubChem BioAssay data set” (2004).

For orientation: GI50 means the concentration that inhibits growth by half.

Structures are written as SMILES.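 A five-concentration, 48-hour dose response in 96-well plates underlies each endpoint, interpolated linearly between surrounding concentrations. GI50 marks 50% less growth.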 Active and inactive are the calls of the source. No stated cut-off is given here; in the data, active = GI50 up to about 1.1 µM and inactive = higher.

Some test systems named below: BT-549; SF-268; KM12; MDA-MB-435; Malme-3M; MDA-MB-231; SK-OV-3; OVCAR-3; SN12C; UACC-62; COLO 205; ACHN; SK-MEL-28; IGROV-1; HT-29; MOLT-4; NCI-H23; K562; A549.
Common to all, as to experiment: DTP human tumour cell line panel, 48 h

Turning to `COc1cc2c(cc1OCCCOc1cc3c(cc1OC)C(=O)N1CCC[C@H]1CN3)N=C[C@@H]1CCCN1C2=O`, the GI50 in the assay on BT-549 is 0.0802 µM (active); with SF-268 it was 0.0234 µM (active); with KM12, 0.0893 µM (active); in the assay with MDA-MB-435 it was 0.117 µM (active); with Malme-3M, 0.115 µM (active); with MDA-MB-231, 0.145 µM (active). In addition, the GI50 in the assay with SK-OV-3 was 0.54 µM (active); with OVCAR-3, 0.0929 µM (active); in the assay with SN12C, 0.189 µM (active); in the assay on UACC-62, 0.1 µM (active); with COLO 205, 0.108 µM (active); with ACHN, 0.0986 µM (active). In addition, the GI50 in the assay with SK-MEL-28 is 0.202 µM (active); with IGROV-1, 0.201 µM (active); with HT-29 it was 0.244 µM (active); in the assay with MOLT-4, 0.011 µM (active); with NCI-H23 it was 0.158 µM (active); with K562, 0.0482 µM (active). The 50% growth inhibitory concentration (GI50) in the assay on A549 is 0.7 µM (active).
On to `COc1ccc2c(c1)[nH]c1c3ccc(OC)cc3oc(=O)c21`, for which the GI50 in the assay with BT-549 is 57.3 µM (inactive); in the assay with SF-268 it was > 100 µM (inactive); in the assay with KM12, 19.8 µM (inactive); in the assay on MDA-MB-435, 0.91 µM (active); with Malme-3M, > 100 µM (inactive); in the assay on MDA-MB-231 it was 92 µM (inactive). For the same compound, the GI50 with SK-OV-3, in the assay on OVCAR-3, with SN12C, with UACC-62, in the assay on COLO 205 and in the assay with ACHN was > 100 µM (inactive) each time. Also, the GI50 with SK-MEL-28, in the assay with IGROV-1, in the assay with HT-29, with MOLT-4, with NCI-H23 and in the assay with K562 was > 100 µM (inactive) throughout. Besides, the GI50 with A549 was > 100 µM (inactive).
Regarding `CCOC(=O)C(=O)/C(=C/NC(=S)c1ccncc1)C(=O)OCC`, the GI50 in the assay with BT-549, with SF-268, in the assay on KM12, in the assay with MDA-MB-435, in the assay on Malme-3M and in the assay on MDA-MB-231 was > 100 µM (inactive) each time. Further, the GI50 with SK-OV-3 is > 100 µM (inactive); in the assay with OVCAR-3 it was 0.0724 µM (active); with SN12C, > 100 µM (inactive); in the assay on UACC-62, > 100 µM (inactive); in the assay with COLO 205, > 100 µM (inactive); with ACHN, > 100 µM (inactive). The GI50 with SK-MEL-28, in the assay on IGROV-1, in the assay on HT-29, with MOLT-4, in the assay with NCI-H23 and in the assay with K562 was > 100 µM (inactive) throughout. The GI50 in the assay on A549 is > 100 µM (inactive).
As to `CC(=O)OC(Cc1cc(C=C(C(F)(F)F)C(F)(F)F)cc(C)n1)(C(F)(F)F)C(F)(F)F`, the GI50 was 1.77 µM (inactive) in the assay on BT-549; 1.74 µM (inactive) with SF-268; 1.55 µM (inactive) with KM12; 1.48 µM (inactive) with MDA-MB-435; 2.48 µM (inactive) with Malme-3M; 1.5 µM (inactive) in the assay with MDA-MB-231. Moreover, the GI50 was 19.5 µM (inactive) with SK-OV-3; 1.36 µM (inactive) in the assay with OVCAR-3; 1.44 µM (inactive) with SN12C; 1.68 µM (inactive) with UACC-62; 0.759 µM (active) in the assay with COLO 205; 1.39 µM (inactive) with ACHN. Further, the GI50 is 1.38 µM (inactive) with SK-MEL-28; 1.1 µM (active) with IGROV-1; 0.55 µM (active) in the assay with HT-29; < 0.01 µM (active) with MOLT-4; 1.45 µM (inactive) in the assay on NCI-H23; 0.774 µM (active) in the assay with K562. For the same compound, the GI50 in the assay on A549 is 2.88 µM (inactive).
On to `CCSC1=N/C(=C\c2ccc(N(C)C)cc2)C(Cl)=N1`, for which the GI50 with BT-549, in the assay on SF-268, in the assay with KM12, with MDA-MB-435, in the assay with Malme-3M and in the assay on MDA-MB-231 was > 100 µM (inactive) throughout. Further, the GI50 in the assay on SK-OV-3, in the assay on OVCAR-3, in the assay with SN12C, in the assay on UACC-62, in the assay with COLO 205 and in the assay on ACHN was > 100 µM (inactive) each time. Further, the GI50 with SK-MEL-28, in the assay with IGROV-1, with HT-29, in the assay on MOLT-4, in the assay on NCI-H23 and in the assay on A549 was > 100 µM (inactive) in each case.
Regarding `Cc1nnc2sc(-c3ccc(-c4ccccc4Cl)o3)nn12`, the GI50 in the assay on BT-549 was 24 µM (inactive); in the assay on SF-268, 33.9 µM (inactive); in the assay with KM12, 35.2 µM (inactive); in the assay with MDA-MB-435 it was 18.9 µM (inactive); in the assay on Malme-3M, 47.3 µM (inactive); with MDA-MB-231, 53.2 µM (inactive). The GI50 with SK-OV-3 was 57.9 µM (inactive); with OVCAR-3, 27 µM (inactive); in the assay on SN12C, 35.4 µM (inactive); in the assay on UACC-62 it was 35.2 µM (inactive); in the assay with COLO 205, 38.5 µM (inactive); in the assay with ACHN it was 48.4 µM (inactive). For the same compound, the GI50 with IGROV-1 was 40.6 µM (inactive); in the assay on HT-29 it was 34.4 µM (inactive); in the assay on MOLT-4, 19 µM (inactive); in the assay with NCI-H23, 24.2 µM (inactive); with K562, 21.2 µM (inactive); with A549, 34.8 µM (inactive).
In the case of `O=C(NNC(=S)NCc1ccccc1)c1csc(NC(=S)NC2CCCCC2)n1`, the GI50 is 36.9 µM (inactive) in the assay on BT-549; 27.6 µM (inactive) in the assay on SF-268; 49.9 µM (inactive) in the assay with KM12; 26.7 µM (inactive) in the assay with MDA-MB-435; 38.6 µM (inactive) with Malme-3M; 44.9 µM (inactive) in the assay with MDA-MB-231. Also, the GI50 in the assay with SK-OV-3 is 50.6 µM (inactive); in the assay on OVCAR-3, 42.1 µM (inactive); in the assay with SN12C it was 34.4 µM (inactive); in the assay with UACC-62 it was 40.1 µM (inactive); in the assay on COLO 205 it was 18.2 µM (inactive); with ACHN, 38.2 µM (inactive). The GI50 with IGROV-1 is 31.3 µM (inactive); in the assay with HT-29 it was 3.42 µM (inactive); with MOLT-4, 30.3 µM (inactive); with NCI-H23, 43 µM (inactive); with A549, 37.2 µM (inactive).
As to `CCC(C)N1CN(c2ccccc2)C2(CCN(CCCC(=O)c3ccc(F)cc3)CC2)C1=O` (stereo unspecified), the GI50 with BT-549 is 13.1 µM (inactive); in the assay with SF-268, 6.7 µM (inactive); in the assay on MDA-MB-435 it was 13.9 µM (inactive); in the assay with Malme-3M it was 14.7 µM (inactive); with MDA-MB-231 it was 10.8 µM (inactive); in the assay on SK-OV-3, 9.29 µM (inactive). The GI50 in the assay on OVCAR-3 was 11.9 µM (inactive); with SN12C, 3.88 µM (inactive); with UACC-62, 16.6 µM (inactive); in the assay on COLO 205, 0.193 µM (active); in the assay on ACHN it was 1.68 µM (inactive); in the assay on SK-MEL-28, 17.4 µM (inactive). Moreover, the GI50 in the assay with IGROV-1 is 3.02 µM (inactive); in the assay with HT-29 it was 0.429 µM (active); with MOLT-4, 3.92 µM (inactive); in the assay with NCI-H23 it was 3.57 µM (inactive); in the assay on K562, 9.18 µM (inactive); in the assay on A549, 6.03 µM (inactive).
As for `COC(=O)c1c(O)ccc2c1c1c(n2Cc2ccccc2)C(=O)c2ccccc2C1=O`, the GI50 is 16.6 µM (inactive) in the assay on BT-549; 14.8 µM (inactive) in the assay on SF-268; 12.9 µM (inactive) in the assay with KM12; 13 µM (inactive) with MDA-MB-435; 28.8 µM (inactive) in the assay with Malme-3M; 16.2 µM (inactive) in the assay with MDA-MB-231. Besides, the GI50 with SK-OV-3 is 16.1 µM (inactive); in the assay with OVCAR-3, 16.7 µM (inactive); with SN12C, 13.9 µM (inactive); with COLO 205, 1.8 µM (inactive); in the assay with ACHN, 12.2 µM (inactive); with SK-MEL-28, 17.5 µM (inactive). Further, the GI50 was 12.6 µM (inactive) in the assay with IGROV-1; 9.23 µM (inactive) with HT-29; 4.88 µM (inactive) with MOLT-4; 15.3 µM (inactive) in the assay on NCI-H23; 11.8 µM (inactive) with K562; 7.76 µM (inactive) in the assay on A549.
For `O=C1NC(N2CCOCC2)=N/C1=C\c1cccs1`, the GI50 with BT-549 is > 100 µM (inactive); in the assay with SF-268 it was > 100 µM (inactive); in the assay on KM12, 36.2 µM (inactive); in the assay on MDA-MB-435, > 100 µM (inactive); with Malme-3M, > 100 µM (inactive); with MDA-MB-231 it was > 100 µM (inactive). Moreover, the GI50 in the assay on SK-OV-3, in the assay on OVCAR-3, with SN12C, in the assay on UACC-62, in the assay with COLO 205 and with ACHN was > 100 µM (inactive) each time. The GI50 in the assay with SK-MEL-28, with IGROV-1, in the assay with HT-29, with MOLT-4, in the assay on NCI-H23 and with A549 was > 100 µM (inactive) in each case.
`CC(=O)/C(=C\Nc1c(C)n(C)n(C)c1=O)C(=O)c1ccccc1`: the GI50 with BT-549, with SF-268, with MDA-MB-435, in the assay with Malme-3M, in the assay with MDA-MB-231 and in the assay on SK-OV-3 was > 50 µM (inactive) throughout. Further, the GI50 in the assay with OVCAR-3, in the assay with SN12C, in the assay with UACC-62, in the assay with COLO 205, in the assay with ACHN and with SK-MEL-28 was > 50 µM (inactive) throughout. Besides, the GI50 in the assay with IGROV-1, with HT-29, with MOLT-4, in the assay with NCI-H23, in the assay with K562 and in the assay on A549 was > 50 µM (inactive) each time.
